# Measured values from paper PMC10108392, “Rimonabant-Based Compounds Bearing Hydrophobic Amino Acid Derivatives as Cannabinoid Receptor Subtype 1 Ligands” (ACS Medicinal Chemistry Letters, 2023).
# Target: T1, CB1R (Rattus norvegicus, UniProt P20272)
# T1 construct: Crude membrane fractions were prepared from the brain; from tissue; host or cells: Wistar rat whole brain, crude membrane fraction
# Experiment: Ligand stimulated [35S]GTPγS binding assay in rat brain membranes
# Format: biochemical
# Settings: rat brain membranes
# Protocol: Our novel chemical compounds were tested in vitro for their binding ability, efficacy, and potency on CB1R in rat brain membrane homogenate (Table 2 and SI, Figure S1). CB1Rs are the most abundant G-protein coupled receptors in the rodent and mammalian brain; therefore, this is an appropriate model to characterize our ligands in a more physiological system.
# In Vitro Biological Assays
# Preparation of Brain Membrane Homogenates
# Wistar rats were locally bred and handled according to the EU Directive 2010/63/EU and to the Regulations on Animal Protection (40/2013. (II. 14.) Korm. r.) of Hungary. Crude membrane fractions were prepared from the brain. Brains were quickly removed from the euthanized rats and directly put in an ice-cold 50 mM Tris-HCl buffer (pH 7.4). The collected tissue was then homogenized in 30 volumes (v/w) of an ice-cold buffer with a Braun Teflon-glass homogenizer at the highest rpm. The homogenate was centrifuged at 20,000 × g for 25 min, and the resulting pellet was suspended in the same volume of a cold buffer followed by incubation at 37 °C for 30 min to remove endogenous ligands. Centrifugation was then repeated. The final pellets were taken up in five volumes of a 50 mM Tris-HCl (pH 7.4) buffer containing 0.32 M sucrose and stored at -80 °C. Prior to the experiment, aliquots were thawed and centrifuged at 20,000 ×g for 25 min and then they were resuspended in 50 mM Tris-HCl (pH 7.4), homogenized with a Douncer, followed by the determination of the protein concentration by the method of Bradford. The membrane suspensions were immediately used either in radioligand binding experiments or in [35S]GTPγS functional assays. […]
# was terminated by diluting the samples with an ice-cold wash buffer (50 mM of Tris-HCl, 2.5 mM of EGTA, 5 mM of MgCl2, 0.5% fatty acid free BSA, pH 7.4), followed by repeated washing and rapid filtration through Whatman GF/B glass fiber filters (Whatman Ltd., Maidstone, UK) pre-soaked with 0.1% polyethyleneimine (30 min before the filtration). Filtration was performed with a 24-well Brandel Cell Harvester (Gaithersburg, MD, USA). Filters were air-dried and immersed into Ultima Gold MV scintillation cocktail, and then radioactivity was measured with a TRI-CARB 2100TR liquid scintillation analyzer (Packard, Perkin Elmer, Waltham, MA, USA).
# Ligand Stimulated [35S]GTPγS Binding Assay
# Rat brain membranes (30 µg protein/tube), prepared as described above, were incubated with 0.05 nM of […]
# mM of NaCl, 3 mM of MgCl2 and 1 mM of EGTA in a 50 mM Tris-HCl buffer (pH 7.4) for 60 min at 30 °C. Basal [35S]GTPγS binding was measured in the absence of ligands and set as 100%. Nonspecific […]
# binding was determined by the addition of 10 µM unlabelled GTPγS and subtracted from total binding.
# Incubation, filtration and radioactivity measurements of the samples were carried out as described above. […]
# All […]
# data and curves were analyzed by GraphPad Prism 5.0 (San Diego, CA, USA).
# T1 sequence (P20272 whole entry): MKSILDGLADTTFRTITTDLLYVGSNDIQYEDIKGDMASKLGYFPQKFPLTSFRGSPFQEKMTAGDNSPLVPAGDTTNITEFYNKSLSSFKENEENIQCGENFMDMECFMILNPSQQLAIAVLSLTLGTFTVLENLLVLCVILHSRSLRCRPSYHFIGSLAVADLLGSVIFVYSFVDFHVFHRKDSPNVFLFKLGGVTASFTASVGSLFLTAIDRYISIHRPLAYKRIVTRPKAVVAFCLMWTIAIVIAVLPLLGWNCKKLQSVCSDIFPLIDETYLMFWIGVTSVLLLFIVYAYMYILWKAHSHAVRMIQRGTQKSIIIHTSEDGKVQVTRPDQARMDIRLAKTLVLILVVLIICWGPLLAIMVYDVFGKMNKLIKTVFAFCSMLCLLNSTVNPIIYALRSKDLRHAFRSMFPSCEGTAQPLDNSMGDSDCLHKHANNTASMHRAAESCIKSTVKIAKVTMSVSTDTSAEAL
smiles,measurement,setting,value
"CNC(=O)[C@@H](NC(=O)c1nn(-c2ccc(Cl)cc2)c(-n2cccc2)c1C)C(C)(C)C [Compound 34, RS2691-tLeu-NHCH3]",CB1R functional profile (agonist / antagonist / inverse agonist),from [35S]GTPγS binding,agonist
same,EC50,"± SEM, read-out: [35S]GTPγS stimulation EC50",46 ± 4.1 nM
